Laboratory results: ChEMBL document CHEMBL1201862, “PubChem BioAssay data set” (2004)
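Method: 48-hour compound exposure of cells in 96-well plates, five concentrations, linear interpolation of endpoints. The concentration for 50% growth inhibition is given as GI50.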 Active and inactive are the calls of the source. Rule as the data show it: active = GI50 up to about 1.1 µM and inactive = higher.

What was measured:
Experiment in all cases: growth of human tumour cells (NCI), 48 h
786-0 = tested on: 786-0
A498 = tested on: A498
A549 = tested on: A549
ACHN = tested on: ACHN
BT-549 = tested on: BT-549
CAKI-1 = tested on: CAKI-1
CCRF-CEM = tested on: CCRF-CEM
COLO 205 = tested on: COLO 205
DU-145 = tested on: DU-145
EKVX = tested on: EKVX
HCC 2998 = tested on: HCC 2998
HCT-116 = tested on: HCT-116
HCT-15 = tested on: HCT-15
HL-60 = tested on: HL-60
HOP-92 = tested on: HOP-92
HT-29 = tested on: HT-29
Hs-578T = tested on: Hs-578T
IGROV-1 = tested on: IGROV-1
K562 = tested on: K562
KM12 = tested on: KM12
LOX IMVI = tested on: LOX IMVI
M14 = tested on: M14
MCF7 = tested on: MCF7
MDA-MB-231 = tested on: MDA-MB-231
MDA-MB-435 = tested on: MDA-MB-435
MDA-N = tested on: MDA-N
MOLT-4 = tested on: MOLT-4
Malme-3M = tested on: Malme-3M
NCI-H226 = tested on: NCI-H226
NCI-H23 = tested on: NCI-H23
NCI-H460 = tested on: NCI-H460
NCI/ADR-RES = tested on: NCI/ADR-RES
OVCAR-3 = tested on: OVCAR-3
OVCAR-4 = tested on: OVCAR-4
OVCAR-5 = tested on: OVCAR-5
OVCAR-8 = tested on: OVCAR-8
PC-3 = tested on: PC-3
RXF 393 = tested on: RXF 393
SF-268 = tested on: SF-268
SF-295 = tested on: SF-295
SF-539 = tested on: SF-539
SK-MEL-28 = tested on: SK-MEL-28
SK-MEL-2 = tested on: SK-MEL-2
SK-OV-3 = tested on: SK-OV-3
SN12C = tested on: SN12C
SNB-75 = tested on: SNB-75
SW-620 = tested on: SW-620
T47D = tested on: T47D
TK-10 = tested on: TK-10
U-251 = tested on: U-251
UACC-257 = tested on: UACC-257
UACC-62 = tested on: UACC-62
UO-31 = tested on: UO-31
HOP-62 = tested on: HOP-62
NCI-H522 = tested on: NCI-H522
RPMI-8226 = tested on: RPMI-8226
SK-MEL-5 = tested on: SK-MEL-5
SNB-19 = tested on: SNB-19

Measured: GI50

C[C@]12CC[C@@H]3c4cc(Br)c(O)c(Br)c4CC[C@H]3[C@@H]1CCC2=O
inactive: 786-0 19.7 µM | A498 40.9 µM | A549 17.3 µM | ACHN 13.5 µM | BT-549 23.8 µM | CAKI-1 18.9 µM | CCRF-CEM 24.7 µM | COLO 205 > 100 µM | DU-145 39.6 µM | EKVX 25.5 µM | HCC 2998 13.9 µM | HCT-116 27.5 µM | HL-60 26.2 µM | HOP-92 34.9 µM | HT-29 46.1 µM | Hs-578T 21.9 µM | IGROV-1 38.1 µM | K562 18 µM | KM12 63.7 µM | LOX IMVI 20.4 µM | M14 39.2 µM | MCF7 21.4 µM | MDA-MB-231 32.2 µM | MDA-MB-435 26.2 µM | MDA-N 33.1 µM | MOLT-4 20.6 µM | Malme-3M 85.9 µM | NCI-H226 7.87 µM | NCI-H23 13.8 µM | NCI-H460 21.4 µM | NCI/ADR-RES 12.5 µM | OVCAR-3 16.4 µM | OVCAR-4 13.3 µM | OVCAR-5 21.8 µM | OVCAR-8 19 µM | PC-3 30.8 µM | RXF 393 16.7 µM | SF-268 23.3 µM | SF-295 16.4 µM | SF-539 19.9 µM | SK-MEL-28 31 µM | SK-MEL-2 15 µM | SK-OV-3 31.4 µM | SN12C 27.7 µM | SNB-75 16.1 µM | SW-620 32.9 µM | T47D 33.9 µM | TK-10 17.6 µM | U-251 16.6 µM | UACC-257 20.9 µM | UACC-62 16.3 µM | UO-31 11.9 µM
12.4 µM: HCT-15

COc1cc(NS(C)(=O)=O)ccc1Nc1ccnc2ccc3[nH]ccc3c12
inactive: 786-0 14.6 µM | A498 16.8 µM | A549 18.3 µM | ACHN 18.4 µM | BT-549 14.6 µM | CAKI-1 17.3 µM | CCRF-CEM 10.4 µM | COLO 205 17 µM | DU-145 14.4 µM | EKVX 19.4 µM | HCT-116 12.2 µM | HL-60 31.5 µM | HOP-62 15.8 µM | HOP-92 11.9 µM | HT-29 16.8 µM | Hs-578T 21.3 µM | IGROV-1 16.1 µM | K562 10.9 µM | KM12 13.8 µM | LOX IMVI 15.2 µM | M14 16.4 µM | MCF7 15.6 µM | MDA-MB-231 11.6 µM | MDA-MB-435 15.6 µM | MDA-N 16.2 µM | Malme-3M 14.1 µM | NCI-H226 18.9 µM | NCI-H23 13.7 µM | NCI-H460 18.2 µM | NCI-H522 5.6 µM | NCI/ADR-RES > 100 µM | OVCAR-3 15.3 µM | OVCAR-4 14.3 µM | OVCAR-5 16.6 µM | OVCAR-8 13.6 µM | PC-3 13.1 µM | RPMI-8226 15 µM | SF-268 11 µM | SF-295 18.2 µM | SK-MEL-28 16.6 µM | SK-MEL-2 16.7 µM | SK-MEL-5 15.3 µM | SN12C 14.4 µM | SNB-19 15.5 µM | SW-620 13.3 µM | T47D 14.9 µM | TK-10 16.3 µM | U-251 14 µM | UACC-257 18.2 µM | UACC-62 17.8 µM | UO-31 40.2 µM
58.3 µM: HCT-15

c1ccc([P+](c2ccccc2)(c2ccccc2)c2ccc(-c3ccc([P+](c4ccccc4)(c4ccccc4)c4ccccc4)cc3)cc2)cc1
inactive: 786-0 25.9 µM | A498 3.97 µM | A549 27.7 µM | ACHN 23.1 µM | BT-549 47.9 µM | CAKI-1 > 100 µM | CCRF-CEM 82.4 µM | COLO 205 16.4 µM | DU-145 63.8 µM | EKVX 37 µM | HCC 2998 47.4 µM | HCT-116 18.2 µM | HL-60 > 100 µM | HOP-62 46.5 µM | HT-29 20.7 µM | Hs-578T > 100 µM | IGROV-1 3.67 µM | K562 > 100 µM | KM12 75.5 µM | LOX IMVI 23.3 µM | M14 44.9 µM | MCF7 36.8 µM | MDA-MB-231 32.8 µM | MDA-MB-435 26.7 µM | MDA-N 29.3 µM | MOLT-4 > 100 µM | Malme-3M 25.3 µM | NCI-H226 30.8 µM | NCI-H23 21.9 µM | NCI-H460 27 µM | NCI-H522 18.3 µM | NCI/ADR-RES > 100 µM | OVCAR-3 15.8 µM | OVCAR-4 21.5 µM | OVCAR-5 67.5 µM | OVCAR-8 19.4 µM | PC-3 35.5 µM | RPMI-8226 > 100 µM | RXF 393 48.1 µM | SF-268 58.5 µM | SF-295 30.2 µM | SF-539 40 µM | SK-MEL-28 49.5 µM | SK-MEL-2 24.3 µM | SK-MEL-5 1.56 µM | SK-OV-3 43.2 µM | SN12C 26.5 µM | SNB-19 50.7 µM | SW-620 30.6 µM | T47D 41.4 µM | TK-10 34.8 µM | U-251 7.94 µM | UACC-257 19.8 µM | UACC-62 56.6 µM
> 100 µM: HCT-15
